In this assay the target is T1, SltB3 (Pseudomonas aeruginosa, UniProt Q9HX28).
T1 sequence (Q9HX28 33-448): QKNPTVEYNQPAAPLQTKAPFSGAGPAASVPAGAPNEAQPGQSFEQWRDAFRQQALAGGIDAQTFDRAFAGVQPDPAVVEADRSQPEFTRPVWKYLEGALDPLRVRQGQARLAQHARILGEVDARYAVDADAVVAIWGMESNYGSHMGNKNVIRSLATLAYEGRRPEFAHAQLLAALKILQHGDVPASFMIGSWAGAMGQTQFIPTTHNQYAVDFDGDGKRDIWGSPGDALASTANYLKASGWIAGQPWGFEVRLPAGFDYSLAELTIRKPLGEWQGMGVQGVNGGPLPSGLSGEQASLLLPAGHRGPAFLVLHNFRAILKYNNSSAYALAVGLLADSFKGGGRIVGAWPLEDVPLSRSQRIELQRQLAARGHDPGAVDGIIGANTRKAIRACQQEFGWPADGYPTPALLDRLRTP
In words: LC/MS product quantification, nonlinear regression. The assay is classed as biochemical. Particulars: 20 mM HEPES, 0.1 M NaCl, 0.1% Triton X, pH 7.0, 25 °C; 8 nM enzyme.

Consider 1 compound from article PMC5436585 (ACS chemical biology, 2016).

Molecules are shown by their SMILES.

By Km is commonly meant the concentration of substrate that gives half-maximal velocity. With `CO[C@@H]1O[C@H](CO)[C@@H](O[C@@H]2O[C@H](CO)[C@@H](O[C@@H]3O[C@H](CO)[C@@H](O[C@@H]4O[C@H](CO)[C@@H](O)[C@H](O)[C@H]4NC(C)=O)[C@H](O[C@H](C)C(=O)N[C@@H](C)C(=O)N[C@H](CCC(=O)N[C@@H](CCC[C@@H](N)C(=O)O)C(=O)N[C@H](C)C(=O)N[C@H](C)C(=O)O)C(=O)O)[C@H]3NC(C)=O)[C@H](O)[C@H]2NC(C)=O)[C@H](O[C@H](C)C(=O)N[C@@H](C)C(=O)N[C@H](CCC(=O)N[C@@H](CCC[C@@H](N)C(=O)O)C(=O)N[C@H](C)C(=O)N[C@H](C)C(=O)O)C(=O)O)[C@H]1NC(C)=O` [compound 1], the Km is 200 ± 20 µM.
